# Source: patent US9981901B2, “IRE-1α inhibitors” (FOSUN ORINOVE PHARMATECH, INC., priority 2007, dated 2018)
# Columns and labels:
# [1] = system: RPMI-8226 multiple myeloma cells; assay: Proliferation of multiple myeloma cells (CellTiter-Glo); type: cell-based, human; conditions: RPMI8226, 24 hours, 100 μM to 0 μM
# Method: FIG. 5. Graph showing inhibition of proliferation of multiple myeloma cells by IRE-1α inhibitor 11-28 (Example 11). RPMI-8226 multiple myeloma cells were seeded at 20,000 cells per well in RPMI culture medium containing 1% FBS and the required antibiotics. The plate was incubated overnight at 37° C., 95% air, 5% CO2. The following day, compound 11-28 or medium alone was added to wells, resulting in a final volume of 100 μl per well. The compound concentration ranged from 100 μM to 0 μM, with compounds diluted by a factor of 4. After addition of compound, the plate was incubated at 37° C., 95% air, 5% CO2 for 24 hours. Cell proliferation was measured using the CellTiter-Glo assay (Promega), following the manufacturer's instructions.
# Proliferation assays using myeloma cell lines (U266, RPMI8226 and MM.1s) are used to determine ED50. Compounds are used as single agents and in combination with other chemotherapeutic drugs.
# [2] = system: human myeloma RPMI8226 tumor xenografts; assay: RPMI8226 xenograft efficacy model; type: in vivo, mouse; conditions: SCID mice, 0.75 mg/kg IV twice weekly
# Method: Mice are monitored for tumor growth, regression and general health. Tumors are collected and characterized by immunohistochemistry and/or FACS analysis. Tumor growth is measured by calipers, ultrasound, or by abdominal lavage. Biomarkers in the blood or tumor can evaluated (primarily XBP-1 splicing).
# [3] = system: phosphorylated IRE-1α and XBP1-splicing in RPMI8226 cells; assay: Western blot and RT-PCR of bortezomib-treated RPMI8226 cells; type: cell-based, human; conditions: 24 hour treatment
# primary murine B cells = assay: IgM secretion after LPS stimulation of primary B cells; type: cell-based, mouse; conditions: added at beginning of stimulation and again at 24 hours; all doses down to 100 nM
# Method: FIG. 9. Inhibition of IgM secretion after LPS stimulation of primary murine B cells with selected IRE-1α inhibitors. […] However, compounds had little effect when at added after 40 hours of stimulation; only slight inhibition at the highest dose. Methods were performed as previously described by Iwakoshi et al., Nature 4, 321-29, 2003 for B cell stimulation, plasma cell differentiation and IgM secretion. Primary B cells were Isolated from BALB/c splenocytes using mouse CD43 Microbeads (Miltenyi cat#130-049-801) with 1×10^6 cells per treatment. Purified B cells were stimulated in B Cell Media at a final density of 1×10^6/ml/well in 24-well plates with 20 μg/ml LPS (Sigma cat# L4391). IRE-1α inhibitor compound 17-1 was added at various concentrations (50 μM, 10 μM, 2 μM, 0.4 μM and 0.08 μM) at specified time points (t=0, t=24 hr, t=40 hr, etc.) Cells were incubated for 48 hr at 37° C. At end of the incubation, cells were spun in a plate at 1500 rpm/3 min. Supernatants were collected for quantitation for IgM secretion using a mouse IgM ELISA Kit (Bethyl Labs cat# E90-101). B Cell medium included RPMI+10% FBS supplemented with NEAA, HEPES, NaPyr, PSQ, and β-mercaptoethanol.
smiles,measurement,setting,value
COc1cc(-c2cccs2)cc(C=O)c1O [11-28],inhibition of cell proliferation,[1],inhibits the proliferation
"CC(C)C[C@H](NC(=O)[C@H](Cc1ccccc1)NC(=O)c1cnccn1)B(O)O [bortezomib, [(1R)-3-methyl-1-[[(2S)-1-oxo-3-phenyl-2-[(pyrazinylcarbonyl)amino]propyl]amino]butyl] boronic acid]",tumor growth,[2],suppression of tumor growth
same,XBP1-splicing,[3],increases
same,levels of phosphorylated IRE-1α,[3],increases
"CN(C)C(=O)c1ccc(-c2ccc3c(C=O)c(O)ccc3c2)cc1 [compound 17-1, 4-(5-formyl-6-hydroxynaphthalen-2-yl)-N,N-dimethylbenzamide]",IgM secretion,primary murine B cells,blocked IgM secretion
